Reference: US20250250230A1, “HETEROCYCLIC COMPOUND” (TAKEDA PHARMACEUTICAL COMPANY LIMITED, priority 2022, published 2025)

Target: T1, human orexin type 2 receptor (Homo sapiens, UniProt O43614)
T1 construct: expressed in transfected cells
T1 sequence (O43614 1-444): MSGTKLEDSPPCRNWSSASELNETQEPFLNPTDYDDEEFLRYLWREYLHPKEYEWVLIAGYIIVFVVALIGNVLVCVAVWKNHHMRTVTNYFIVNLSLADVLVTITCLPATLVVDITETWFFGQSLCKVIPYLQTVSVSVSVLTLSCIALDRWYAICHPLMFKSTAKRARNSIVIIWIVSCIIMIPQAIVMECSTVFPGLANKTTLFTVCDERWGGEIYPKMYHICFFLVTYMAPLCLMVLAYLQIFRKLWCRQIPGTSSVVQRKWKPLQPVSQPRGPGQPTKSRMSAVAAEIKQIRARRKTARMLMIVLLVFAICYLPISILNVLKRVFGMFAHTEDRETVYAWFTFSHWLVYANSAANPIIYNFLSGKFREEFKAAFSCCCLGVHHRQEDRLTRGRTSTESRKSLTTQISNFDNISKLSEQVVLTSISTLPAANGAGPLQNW
Assay: Measurement of orexin type 2 receptor agonist activity (calcium fluorescence, Fluo-4 AM, FDSS)
Type: cell-based
Details: test compound 3 μM; CHO cells expressing human OX2 receptor; DMSO = 0%, orexin A (human) = 100%
In short: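 Agonist response scaled between vehicle (0%) and human orexin A at 10 nM final (100%), from 2-min kinetic Fluo-4 fluorescence reads. Stable hOX2R CHO-K1 clone, dye-loaded in HBSS/20 mM HEPES/0.1% BSA with 1.25 mM probenecid before compound addition.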

SMILES | OX2R agonist activity (3 μM, %) [%]
Cc1noc(C2(NS(C)(=O)=O)CCN(C(=O)[C@@H]3C[C@@]3(F)c3ccccc3-c3c(F)cccc3F)C2)n1 (mixture of isomers) [Example 421, a mixture of N-[(3R)-1-[(1S,2S)-2-(2′,6′-difluoro[1,1′-biphenyl]-2-yl)-2-fluorocyclopropane-1-carbonyl]-3-(3-methyl-1,2,4-oxadiazol-5-yl)pyrrolidin-3-yl]methanesulfonamide and N-[(3S)-1-[(1S,2S)-2-(2′,6′-difluoro[1,1′-biphenyl]-2-yl)-2-fluorocyclopropane-1-carbonyl]-3-(3-methyl-1,2,4-oxadiazol-5-yl)pyrrolidin-3-yl]methanesulfonamide] | 88
CN(C)S(=O)(=O)N[C@H]1CCCN(C(=O)[C@@H]2C[C@H]2c2c(F)cccc2-c2c(F)cccc2F)C1 [Example 312, N,N-dimethyl-N′-{(3S)-1-[(1R,2R)-2-(2′,3,6′-trifluoro[1,1′-biphenyl]-2-yl)cyclopropane-1-carbonyl]piperidin-3-yl}sulfuric diamide] | 100
CS(=O)(=O)NC[C@@H]1CCN1C(=O)C1CC1c1c(-c2c(F)cccc2F)csc1F (stereo partly drawn) [Example 367, N-{[(2S)-1-{(1R,2R)-2-[4-(2,6-difluorophenyl)-2-fluorothiophen-3-yl]cyclopropane-1-carbonyl}azetidin-2-yl]methyl}methanesulfonamide, or N-{[(2S)-1-{(1S,2S)-2-[4-(2,6-difluorophenyl)-2-fluorothiophen-3-yl]cyclopropane-1-carbonyl}azetidin-2-yl]methyl}methanesulfonamide] | 93
CC(C)NS(=O)(=O)NC[C@@H]1[C@H](F)CN1C(=O)[C@@H]1C[C@@]1(F)c1ccc(F)cc1-c1c(F)cccc1F [Example 425, N-({(2R,3R)-3-fluoro-1-[(1S,2S)-2-fluoro-2-(2′,5,6′-trifluoro[1,1′-biphenyl]-2-yl)cyclopropane-1-carbonyl]azetidin-2-yl}methyl)-N′-propan-2-ylsulfuric diamide] | 72
CS(=O)(=O)NC[C@@H]1[C@H](F)CN1C(=O)[C@@H]1C[C@@]1(F)c1ccc(F)cc1-c1c(F)cccc1F [Example 413, N-({(2R,3R)-3-fluoro-1-[(1S,2S)-2-fluoro-2-(2′,5,6′-trifluoro[1,1′-biphenyl]-2-yl)cyclopropane-1-carbonyl]azetidin-2-yl}methyl)methanesulfonamide] | 109
CS(=O)(=O)NC1CCC2CN(C(=O)C3CC3c3ccccc3-c3c(F)cccc3F)CC21 (stereo not drawn) [Example 238, N-2-[(2-(2′,6′-difluoro[1,1′-biphenyl]-2-yl)cyclopropane-1-carbonyl]octahydrocyclopenta[c]pyrrol-4-yl}methanesulfonamide Optical Isomer] | 98
C[C@]1(NS(C)(=O)=O)CCN(C(=O)[C@@H]2C[C@H]2c2ccccc2-c2c(F)cccc2F)C1 (mixture of isomers) [Example 286, a mixture of N-{(3R)-1-[(1R,2R)-2-(2′,6′-difluoro[1,1′-biphenyl]-2-yl)cyclopropane-1-carbonyl]-3-methylpyrrolidin-3-yl}methanesulfonamide and N-{(3S)-1-[(1R,2R)-2-(2′,6′-difluoro[1,1′-biphenyl]-2-yl)cyclopropane-1-carbonyl]-3-methylpyrrolidin-3-yl}methanesulfonamide] | 96
CCS(=O)(=O)NC[C@@H]1[C@H](F)CN1C(=O)C1CC1(F)c1ccccc1-c1ccccc1Cl (stereo partly drawn) [Example 441, N-({(2R,3R)-1-[(1R,2R)-2-(2′-chloro[1,1′-biphenyl]-2-yl)-2-fluorocyclopropane-1-carbonyl]-3-fluoroazetidin-2-yl}methyl)ethanesulfonamide, or N-({(2R,3R)-1-[(1S,2S)-2-(2′-chloro[1,1′-biphenyl]-2-yl)-2-fluorocyclopropane-1-carbonyl]-3-fluoroazetidin-2-yl}methyl)ethanesulfonamide] | 90
CS(=O)(=O)N[C@H]1C[C@@H](F)CN(C(=O)[C@@H]2C[C@H]2c2ccccc2-c2c(F)cccc2F)C1 [Example 232, N-{(3S,5R)-1-[(1R,2R)-2-(2′,6′-difluoro[1,1′-biphenyl]-2-yl)cyclopropane-1-carbonyl]-5-fluoropiperidin-3-yl}methanesulfonamide] | 103
CS(=O)(=O)N[C@H]1CCCN(C(=O)C2CC2(F)c2ccccc2-c2c(F)cccc2F)C1 (mixture of isomers) [Example 199, a mixture of N-{(3S)-1-[(1R,2R)-2-(2′,6′-difluoro[1,1′-biphenyl]-2-yl)-2-fluorocyclopropane-1-carbonyl]piperidin-3-yl}methanesulfonamide and N-{(3S)-1-[(1S,2S)-2-(2′,6′-difluoro[1,1′-biphenyl]-2-yl)-2-fluorocyclopropane-1-carbonyl]piperidin-3-yl}methanesulfonamide] | 104
CS(=O)(=O)NC[C@@H]1[C@H](CO)CN1C(=O)[C@@H]1C[C@@]1(F)c1ccccc1-c1c(F)cccc1F [Example 384, N-{[(2S,3R)-1-[(1S,2S)-2-(2′,6′-difluoro[1,1′-biphenyl]-2-yl)-2-fluorocyclopropane-1-carbonyl]-3-(hydroxymethyl)azetidin-2-yl]methyl}methanesulfonamide] | 99
Cc1ccccc1-c1ccccc1C1CC1C(=O)N1CCCC(NS(C)(=O)=O)CC1 (racemic) [Example 52, a mixture of rac-N-{(4R)-1-[(1R,2R)-2-(2′-methyl[1,1′-biphenyl]-2-yl)cyclopropane-1-carbonyl]azepan-4-yl}methanesulfonamide and rac-N-{(4S)-1-[(1R,2R)-2-(2′-methyl[1,1′-biphenyl]-2-yl)cyclopropane-1-carbonyl]azepan-4-yl}methanesulfonamide] | 65
CS(=O)(=O)NCC1CN(C(=O)C2CC2c2ccccc2-c2c(F)cccc2F)CCC1(F)F (racemic) [Example 275, a mixture of rac-N-({(3R)-1-[(1R,2R)-2-(2′,6′-difluoro[1,1′-biphenyl]-2-yl)cyclopropane-1-carbonyl]-4,4-difluoropiperidin-3-yl}methyl)methanesulfonamide and rac-N-({(3S)-1-[(1R,2R)-2-(2′,6′-difluoro[1,1′-biphenyl]-2-yl)cyclopropane-1-carbonyl]-4,4-difluoropiperidin-3-yl}methyl)methanesulfonamide] | 57
CS(=O)(=O)NC1CCCN(C(=O)C2CC2c2ccc(F)cc2-c2c(F)cccc2F)CC1 (racemic) [Example 153, a mixture of rac-N-{(4R)-1-[(1R,2R)-2-(2′,5,6′-trifluoro[1,1′-biphenyl]-2-yl)cyclopropane-1-carbonyl]azepan-4-yl}methanesulfonamide and rac-N-{(4S)-1-[(1R,2R)-2-(2′,5,6′-trifluoro[1,1′-biphenyl]-2-yl)cyclopropane-1-carbonyl]azepan-4-yl}methanesulfonamide] | 100
